Source: ChEMBL document CHEMBL1909046, “DrugMatrix in vitro pharmacology data”

Assays:
Vasopressin V1a receptor = Vasopressin V1a receptor (Homo sapiens, UniProt P37288); format: cell membranes, Membrane; conditions: hek293; further: in other assays of this panel Not Active means under 50% inhibition at 10 µM
[1] = molecular target: T1, Vasoactive intestinal polypeptide receptor 1 (Homo sapiens, UniProt P32241); format: cell membranes, Membrane; conditions: ht-29; further: in other assays of this panel Not Active means under 50% inhibition at 10 µM
T1 sequence (P32241 whole entry): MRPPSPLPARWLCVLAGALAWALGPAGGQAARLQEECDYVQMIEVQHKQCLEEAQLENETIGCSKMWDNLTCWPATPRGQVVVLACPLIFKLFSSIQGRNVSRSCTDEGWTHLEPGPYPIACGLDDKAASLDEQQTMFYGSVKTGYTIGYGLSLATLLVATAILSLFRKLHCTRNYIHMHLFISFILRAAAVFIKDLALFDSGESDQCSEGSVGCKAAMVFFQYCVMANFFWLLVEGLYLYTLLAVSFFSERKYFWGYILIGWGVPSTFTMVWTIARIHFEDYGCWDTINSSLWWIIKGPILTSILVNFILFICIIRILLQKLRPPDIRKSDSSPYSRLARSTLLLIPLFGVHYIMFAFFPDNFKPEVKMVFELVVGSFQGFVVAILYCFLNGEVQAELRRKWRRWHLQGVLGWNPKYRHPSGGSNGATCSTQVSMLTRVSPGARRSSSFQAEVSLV

Insulin receptor = Insulin receptor (Rattus norvegicus, UniProt P15127); format: cell membranes, Wistar, Liver, Membrane; further: in other assays of this panel Not Active means under 50% inhibition at 10 µM
Sequence of Insulin receptor (P15127 27-759 limits assumed): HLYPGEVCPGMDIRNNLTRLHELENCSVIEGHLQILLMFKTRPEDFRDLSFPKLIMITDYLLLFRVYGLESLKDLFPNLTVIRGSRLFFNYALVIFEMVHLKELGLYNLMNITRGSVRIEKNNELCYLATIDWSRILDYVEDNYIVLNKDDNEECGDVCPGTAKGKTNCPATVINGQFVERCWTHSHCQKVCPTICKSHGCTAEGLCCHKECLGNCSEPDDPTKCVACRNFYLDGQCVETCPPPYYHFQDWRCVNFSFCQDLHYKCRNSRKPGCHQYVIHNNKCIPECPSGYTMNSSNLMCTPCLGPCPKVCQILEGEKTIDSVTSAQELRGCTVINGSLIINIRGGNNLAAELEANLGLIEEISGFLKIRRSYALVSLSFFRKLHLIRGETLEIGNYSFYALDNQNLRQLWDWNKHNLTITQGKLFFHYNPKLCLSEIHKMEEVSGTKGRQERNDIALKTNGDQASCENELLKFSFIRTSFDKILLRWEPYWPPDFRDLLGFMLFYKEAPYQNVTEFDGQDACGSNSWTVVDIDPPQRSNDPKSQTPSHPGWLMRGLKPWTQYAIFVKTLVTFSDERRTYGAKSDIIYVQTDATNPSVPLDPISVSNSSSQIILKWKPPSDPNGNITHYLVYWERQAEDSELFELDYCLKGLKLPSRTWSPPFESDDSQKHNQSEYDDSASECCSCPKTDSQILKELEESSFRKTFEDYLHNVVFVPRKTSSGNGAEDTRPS
Sequence of Insulin receptor (P15127 764-1383 limits assumed): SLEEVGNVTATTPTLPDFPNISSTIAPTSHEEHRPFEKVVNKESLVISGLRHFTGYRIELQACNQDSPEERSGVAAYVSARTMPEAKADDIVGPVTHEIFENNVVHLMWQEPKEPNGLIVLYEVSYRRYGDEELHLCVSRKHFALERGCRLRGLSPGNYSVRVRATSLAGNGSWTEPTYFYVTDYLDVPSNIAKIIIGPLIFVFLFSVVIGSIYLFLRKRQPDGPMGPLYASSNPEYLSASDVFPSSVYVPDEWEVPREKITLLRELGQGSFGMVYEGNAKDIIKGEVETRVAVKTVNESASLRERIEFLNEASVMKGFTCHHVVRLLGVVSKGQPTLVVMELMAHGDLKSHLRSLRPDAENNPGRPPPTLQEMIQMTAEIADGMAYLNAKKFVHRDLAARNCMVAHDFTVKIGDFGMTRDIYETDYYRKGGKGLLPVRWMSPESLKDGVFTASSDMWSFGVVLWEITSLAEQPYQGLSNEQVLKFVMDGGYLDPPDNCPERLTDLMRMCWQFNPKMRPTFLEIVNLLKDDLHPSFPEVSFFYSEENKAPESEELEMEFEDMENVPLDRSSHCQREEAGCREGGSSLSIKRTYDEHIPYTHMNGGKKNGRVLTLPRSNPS

[2] = molecular target: 5-hydroxytryptamine receptor 6 (Homo sapiens, UniProt P50406); format: cell membranes, HeLa, Membrane; further: in other assays of this panel Not Active means under 50% inhibition at 10 µM
Sequence of 5-hydroxytryptamine receptor 6 (P50406 whole entry): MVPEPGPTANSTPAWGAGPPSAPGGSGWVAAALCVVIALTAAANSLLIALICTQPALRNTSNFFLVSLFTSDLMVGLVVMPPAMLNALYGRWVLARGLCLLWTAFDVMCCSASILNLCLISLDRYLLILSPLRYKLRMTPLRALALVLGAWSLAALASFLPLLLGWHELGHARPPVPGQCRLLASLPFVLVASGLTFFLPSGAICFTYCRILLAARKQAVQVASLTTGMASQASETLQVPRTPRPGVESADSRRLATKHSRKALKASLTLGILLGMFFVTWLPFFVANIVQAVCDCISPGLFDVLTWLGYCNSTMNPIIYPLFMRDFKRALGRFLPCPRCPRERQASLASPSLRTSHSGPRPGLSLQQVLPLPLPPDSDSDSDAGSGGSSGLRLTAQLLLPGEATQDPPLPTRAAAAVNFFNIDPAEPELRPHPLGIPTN

D(4) dopamine receptor = molecular target: T2, D(4) dopamine receptor (Homo sapiens, UniProt P21917); assay: DRUGMATRIX: Dopamine D4.2 radioligand binding (ligand: [3H] Spiperone); format: cell membranes, CHO-K1, Membrane; conditions: cho-k1; Not Active = under 50% inhibition at 10 µM
T2 sequence (P21917 whole entry): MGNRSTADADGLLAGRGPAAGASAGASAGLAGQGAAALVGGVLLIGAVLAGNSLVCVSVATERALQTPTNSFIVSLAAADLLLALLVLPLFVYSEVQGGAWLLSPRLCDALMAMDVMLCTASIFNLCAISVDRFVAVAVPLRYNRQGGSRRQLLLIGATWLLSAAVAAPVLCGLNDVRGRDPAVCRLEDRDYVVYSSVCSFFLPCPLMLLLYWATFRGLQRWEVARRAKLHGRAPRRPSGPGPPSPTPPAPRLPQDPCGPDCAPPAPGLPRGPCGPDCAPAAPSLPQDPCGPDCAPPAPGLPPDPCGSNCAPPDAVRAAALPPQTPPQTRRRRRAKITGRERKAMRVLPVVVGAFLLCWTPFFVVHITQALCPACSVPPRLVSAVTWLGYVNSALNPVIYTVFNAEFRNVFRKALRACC

[3] = molecular target: T3, Type-2 angiotensin II receptor (Homo sapiens, UniProt P50052); format: cell-based; conditions: cho-k1; further: in other assays of this panel Not Active means under 50% inhibition at 10 µM
T3 sequence (P50052 whole entry): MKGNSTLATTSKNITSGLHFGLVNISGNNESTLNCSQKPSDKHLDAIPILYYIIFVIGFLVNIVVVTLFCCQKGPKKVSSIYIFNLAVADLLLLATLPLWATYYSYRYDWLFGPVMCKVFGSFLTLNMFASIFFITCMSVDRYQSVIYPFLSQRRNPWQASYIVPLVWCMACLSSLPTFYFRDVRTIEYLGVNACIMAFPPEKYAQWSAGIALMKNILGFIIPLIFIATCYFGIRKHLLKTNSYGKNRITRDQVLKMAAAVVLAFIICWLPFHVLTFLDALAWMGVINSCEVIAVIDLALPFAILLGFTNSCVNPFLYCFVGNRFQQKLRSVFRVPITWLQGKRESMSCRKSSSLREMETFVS

[4] = molecular target: Tyrosine-protein kinase Lck (Homo sapiens, UniProt P06239); assay: DRUGMATRIX: Protein Tyrosine Kinase, LCK enzyme inhibition (substrate: Poly(Glu:Tyr)); format: cell-based, Insect cells; conditions: Not Active = under 50% inhibition at 10 µM
Sequence of Tyrosine-protein kinase Lck (P06239 whole entry): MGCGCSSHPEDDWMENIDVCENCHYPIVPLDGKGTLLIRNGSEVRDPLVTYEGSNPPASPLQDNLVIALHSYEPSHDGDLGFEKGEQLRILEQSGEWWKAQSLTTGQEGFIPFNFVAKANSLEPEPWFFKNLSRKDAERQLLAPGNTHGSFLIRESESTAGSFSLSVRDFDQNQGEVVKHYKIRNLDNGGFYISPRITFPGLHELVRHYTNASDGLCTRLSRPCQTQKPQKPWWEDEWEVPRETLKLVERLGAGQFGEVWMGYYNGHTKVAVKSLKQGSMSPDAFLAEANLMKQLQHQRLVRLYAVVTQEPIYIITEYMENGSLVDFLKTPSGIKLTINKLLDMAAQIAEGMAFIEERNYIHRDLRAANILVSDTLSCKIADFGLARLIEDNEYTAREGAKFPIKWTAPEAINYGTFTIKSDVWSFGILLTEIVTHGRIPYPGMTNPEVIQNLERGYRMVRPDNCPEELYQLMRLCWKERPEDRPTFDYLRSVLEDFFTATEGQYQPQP

Sequence of Vasopressin V1a receptor (P37288 whole entry): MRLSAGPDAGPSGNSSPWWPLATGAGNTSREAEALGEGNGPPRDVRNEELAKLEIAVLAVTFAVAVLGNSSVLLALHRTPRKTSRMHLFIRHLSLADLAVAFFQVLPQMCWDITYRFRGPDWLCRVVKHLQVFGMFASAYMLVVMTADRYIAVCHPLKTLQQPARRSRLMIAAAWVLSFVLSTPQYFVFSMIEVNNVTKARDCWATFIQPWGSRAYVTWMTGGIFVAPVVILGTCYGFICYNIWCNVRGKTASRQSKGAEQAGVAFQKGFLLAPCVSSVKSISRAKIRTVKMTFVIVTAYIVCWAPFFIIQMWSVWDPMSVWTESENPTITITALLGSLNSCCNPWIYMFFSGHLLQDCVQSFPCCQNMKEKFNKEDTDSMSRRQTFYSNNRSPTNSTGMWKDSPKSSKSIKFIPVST

Molecule | IC50 (Vasopressin V1a receptor) | IC50 [1] | IC50 (Insulin receptor) | IC50 ([2]; hela) | IC50 (D(4) dopamine receptor) | IC50 [3] | IC50 ([4]; insect cells) | Ki (Vasopressin V1a receptor) | Ki [1] | Ki (Insulin receptor) | Ki ([2]; hela) | Ki (D(4) dopamine receptor) | Ki [3] | Ki ([4]; insect cells) | IC50 ([4]; read-out: IC50) | IC50 ([2]; read-out: IC50) | Ki ([2]; read-out: Ki)
CCC(C)(C)C(=O)O[C@H]1C[C@@H](C)C=C2C=C[C@H](C)[C@H](CC[C@@H]3C[C@@H](O)CC(=O)O3)[C@H]21 [SIMVASTATIN] | Not Active | Not Active | Not Active | Not Active | Not Active | Not Active | Not Active |  |  |  |  |  |  |  |  |  | 
Cc1ccnc(NS(=O)(=O)c2ccc(N)cc2)n1 [SULFAMERAZINE] | Not Active | Not Active | Not Active | Not Active | Not Active | Not Active | Not Active |  |  |  |  |  |  |  |  |  | 
CCN(CC)N=O [N-NITROSODIETHYLAMINE] | Not Active | Not Active | Not Active | Not Active | Not Active | Not Active | Not Active |  |  |  |  |  |  |  |  |  | 
CC#C[C@]1(O)CC[C@H]2[C@@H]3CCC4=CC(=O)CCC4=C3[C@@H](c3ccc(N(C)C)cc3)C[C@@]21C [MIFEPRISTONE] | Not Active | Not Active | Not Active | Not Active | Not Active | Not Active | Not Active |  |  |  |  |  |  |  |  |  | 
LEAD(IV) ACETATE | Not Active | Not Active | Not Active | Not Active | Not Active | Not Active | Not Active | Not Active | Not Active | Not Active | Not Active | Not Active | Not Active | Not Active |  |  | 
O=C(OC[C@H]1O[C@@H](OC(=O)c2cc(O)c(O)c(OC(=O)c3cc(O)c(O)c(O)c3)c2)[C@H](OC(=O)c2cc(O)c(O)c(OC(=O)c3cc(O)c(O)c(O)c3)c2)[C@@H](OC(=O)c2cc(O)c(O)c(OC(=O)c3cc(O)c(O)c(O)c3)c2)[C@@H]1OC(=O)c1cc(O)c(O)c(OC(=O)c2cc(O)c(O)c(O)c2)c1)c1cc(O)c(O)c(OC(=O)c2cc(O)c(O)c(O)c2)c1 [TANNIC ACID] | Not Active | Not Active | Not Active | Not Active | Not Active | Not Active |  |  |  |  |  |  |  |  | 79 nM |  | 
Oc1ccc(/C=C/c2cc(O)cc(O)c2)cc1 [RESVERATROL] | Not Active | Not Active | Not Active | Not Active | Not Active | Not Active | Not Active |  |  |  |  |  |  |  |  |  | 
CC[C@@]1(O)C(=O)OCc2c1cc1n(c2=O)Cc2cc3c(CN(C)C)c(O)ccc3nc2-1 [TOPOTECAN] | Not Active | Not Active | Not Active | Not Active | Not Active | Not Active | Not Active |  |  |  |  |  |  |  |  |  | 
C=CCc1ccc2c(c1)OCO2 [SAFROLE] | Not Active | Not Active | Not Active | Not Active | Not Active | Not Active | Not Active |  |  |  |  |  |  |  |  |  | 
C1CCN2C[C@@H]3C[C@@H](CN4CCCC[C@@H]34)[C@H]2C1 [SPARTEINE] | Not Active | Not Active | Not Active | Not Active | Not Active | Not Active | Not Active |  |  |  |  |  |  |  |  |  | 
CC[C@H](C)C(=O)O[C@H]1CCC=C2C=C[C@H](C)[C@H](CC[C@@H]3C[C@@H](O)CC(=O)O3)[C@H]21 [MEVASTATIN] | Not Active | Not Active | Not Active | Not Active | Not Active | Not Active | Not Active |  |  |  |  |  |  |  |  |  | 
CS(=O)(=O)c1ccc(C2=C(c3ccccc3)C(=O)OC2)cc1 [ROFECOXIB] | Not Active | Not Active | Not Active | Not Active | Not Active | Not Active | Not Active |  |  |  |  |  |  |  |  |  | 
Cc1cn([C@H]2C=C[C@@H](CO)O2)c(=O)[nH]c1=O [STAVUDINE] | Not Active | Not Active | Not Active | Not Active | Not Active | Not Active | Not Active |  |  |  |  |  |  |  |  |  | 
CNCCCC12CCC(c3ccccc31)c1ccccc12 [MAPROTILINE] | Not Active | Not Active | Not Active |  | Not Active | Not Active | Not Active |  |  |  |  |  |  |  |  | 892 nM | 414 nM
Nc1nc(N)c2nc(-c3ccccc3)c(N)nc2n1 | Not Active | Not Active | Not Active | Not Active | Not Active | Not Active | Not Active |  |  |  |  |  |  |  |  |  | 
Cc1[nH]c(=O)c(C#N)cc1-c1ccncc1 [MILRINONE] | Not Active | Not Active | Not Active | Not Active | Not Active | Not Active | Not Active |  |  |  |  |  |  |  |  |  | 
C[C@]12CCC(=O)C[C@@H]1CC[C@@H]1[C@@H]2CC[C@]2(C)[C@@H](O)CC[C@@H]12 [STANOLONE] | Not Active | Not Active | Not Active | Not Active | Not Active | Not Active | Not Active |  |  |  |  |  |  |  |  |  | 
CC1(C)[C@H](C(=O)O)N2C(=O)C[C@H]2S1(=O)=O [SULBACTAM] | Not Active | Not Active | Not Active | Not Active | Not Active | Not Active | Not Active |  |  |  |  |  |  |  |  |  | 
CCOC(=O)C1=C(C)NC(C)=C(C(=O)OCC)C1c1ccccc1/C=C/C(=O)OC(C)(C)C [LACIDIPINE] | Not Active | Not Active | Not Active | Not Active | Not Active | Not Active | Not Active |  |  |  |  |  |  |  |  |  | 
CC(N)C12CC3CC(CC(C3)C1)C2 (stereo not given) [RIMANTADINE] | Not Active | Not Active | Not Active | Not Active | Not Active | Not Active | Not Active |  |  |  |  |  |  |  |  |  | 
CO[C@@]12[C@H](COC(N)=O)C3=C(C(=O)C(C)=C(N)C3=O)N1C[C@@H]1N[C@@H]12 [MITOMYCIN] | Not Active | Not Active | Not Active | Not Active | Not Active | Not Active | Not Active |  |  |  |  |  |  |  |  |  | 
